# ChEMBL document CHEMBL5291721, “A preclinical secondary pharmacology resource illuminates target-adverse drug reaction associations of marketed drugs” (Nat Commun, 2023)
# How the values were obtained:
# [1] = molecular target: Delta-type opioid receptor (Homo sapiens, UniProt P41143)
# [2] = molecular target: T1, Muscarinic acetylcholine receptor M2 (Homo sapiens, UniProt P08172); type: functional, cell-based
# T1 sequence (P08172 whole entry): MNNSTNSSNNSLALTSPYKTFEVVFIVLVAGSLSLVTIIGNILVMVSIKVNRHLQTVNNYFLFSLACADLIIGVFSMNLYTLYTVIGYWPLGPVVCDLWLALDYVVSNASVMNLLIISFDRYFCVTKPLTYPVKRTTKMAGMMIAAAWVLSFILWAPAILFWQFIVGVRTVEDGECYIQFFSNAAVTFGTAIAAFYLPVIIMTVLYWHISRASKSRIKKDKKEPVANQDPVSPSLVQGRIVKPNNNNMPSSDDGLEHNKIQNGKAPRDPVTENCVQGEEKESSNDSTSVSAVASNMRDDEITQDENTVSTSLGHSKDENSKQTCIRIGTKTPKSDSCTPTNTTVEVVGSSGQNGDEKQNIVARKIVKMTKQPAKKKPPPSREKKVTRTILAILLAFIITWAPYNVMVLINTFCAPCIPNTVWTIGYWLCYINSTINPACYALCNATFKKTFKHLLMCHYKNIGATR
# [3] = molecular target: T2, Prostaglandin G/H synthase 1 (Rattus norvegicus, UniProt Q63921); type: functional
# T2 sequence (Q63921 whole entry): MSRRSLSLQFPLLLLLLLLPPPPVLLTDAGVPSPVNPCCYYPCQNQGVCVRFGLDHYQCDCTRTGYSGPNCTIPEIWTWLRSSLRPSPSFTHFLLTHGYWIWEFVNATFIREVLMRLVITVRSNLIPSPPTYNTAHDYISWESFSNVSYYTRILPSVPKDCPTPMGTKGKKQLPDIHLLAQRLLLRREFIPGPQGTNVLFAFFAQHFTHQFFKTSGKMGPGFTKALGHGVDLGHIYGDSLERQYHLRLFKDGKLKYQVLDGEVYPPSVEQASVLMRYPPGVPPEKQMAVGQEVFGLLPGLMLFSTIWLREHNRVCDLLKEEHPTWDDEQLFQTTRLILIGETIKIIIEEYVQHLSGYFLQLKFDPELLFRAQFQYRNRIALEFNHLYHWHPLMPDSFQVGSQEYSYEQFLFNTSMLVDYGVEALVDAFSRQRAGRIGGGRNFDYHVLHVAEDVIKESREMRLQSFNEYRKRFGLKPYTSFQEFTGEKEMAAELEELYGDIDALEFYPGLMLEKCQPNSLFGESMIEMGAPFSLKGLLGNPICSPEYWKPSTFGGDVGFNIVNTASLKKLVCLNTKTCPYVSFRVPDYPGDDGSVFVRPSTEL
# [4] = molecular target: Cannabinoid receptor 1 (Homo sapiens, UniProt P21554); type: functional, cell-based
# Sequence of Cannabinoid receptor 1 (P21554 whole entry): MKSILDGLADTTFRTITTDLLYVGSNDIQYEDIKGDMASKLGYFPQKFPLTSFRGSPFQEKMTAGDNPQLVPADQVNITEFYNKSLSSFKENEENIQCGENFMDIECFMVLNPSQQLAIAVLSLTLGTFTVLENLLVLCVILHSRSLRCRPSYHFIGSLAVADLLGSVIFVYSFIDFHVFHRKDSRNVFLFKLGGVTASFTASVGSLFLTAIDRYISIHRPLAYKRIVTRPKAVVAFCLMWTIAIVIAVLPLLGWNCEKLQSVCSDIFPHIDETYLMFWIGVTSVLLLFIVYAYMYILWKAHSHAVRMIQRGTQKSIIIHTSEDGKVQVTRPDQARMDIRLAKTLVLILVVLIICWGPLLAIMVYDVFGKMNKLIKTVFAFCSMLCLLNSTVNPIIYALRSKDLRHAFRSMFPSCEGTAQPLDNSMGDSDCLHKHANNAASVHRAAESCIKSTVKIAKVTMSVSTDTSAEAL
# [5] = molecular target: T3, Amine oxidase [flavin-containing] A (Homo sapiens, UniProt P21397); type: functional
# T3 sequence (P21397 whole entry): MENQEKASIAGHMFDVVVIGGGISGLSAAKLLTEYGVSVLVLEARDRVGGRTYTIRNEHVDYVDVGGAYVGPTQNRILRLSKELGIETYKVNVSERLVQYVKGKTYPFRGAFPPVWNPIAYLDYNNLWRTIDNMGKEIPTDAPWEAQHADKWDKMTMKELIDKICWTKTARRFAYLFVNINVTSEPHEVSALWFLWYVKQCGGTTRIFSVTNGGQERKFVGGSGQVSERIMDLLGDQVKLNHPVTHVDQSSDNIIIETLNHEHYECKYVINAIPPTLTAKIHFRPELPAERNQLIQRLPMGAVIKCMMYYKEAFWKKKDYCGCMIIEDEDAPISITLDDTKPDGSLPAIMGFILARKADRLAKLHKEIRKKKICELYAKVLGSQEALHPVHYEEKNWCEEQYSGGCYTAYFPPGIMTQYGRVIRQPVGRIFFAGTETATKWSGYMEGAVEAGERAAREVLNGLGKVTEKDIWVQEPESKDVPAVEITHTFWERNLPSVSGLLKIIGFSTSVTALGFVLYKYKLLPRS
# [6] = molecular target: T4, Progesterone receptor (Homo sapiens, UniProt P06401); type: functional
# T4 sequence (P06401 whole entry): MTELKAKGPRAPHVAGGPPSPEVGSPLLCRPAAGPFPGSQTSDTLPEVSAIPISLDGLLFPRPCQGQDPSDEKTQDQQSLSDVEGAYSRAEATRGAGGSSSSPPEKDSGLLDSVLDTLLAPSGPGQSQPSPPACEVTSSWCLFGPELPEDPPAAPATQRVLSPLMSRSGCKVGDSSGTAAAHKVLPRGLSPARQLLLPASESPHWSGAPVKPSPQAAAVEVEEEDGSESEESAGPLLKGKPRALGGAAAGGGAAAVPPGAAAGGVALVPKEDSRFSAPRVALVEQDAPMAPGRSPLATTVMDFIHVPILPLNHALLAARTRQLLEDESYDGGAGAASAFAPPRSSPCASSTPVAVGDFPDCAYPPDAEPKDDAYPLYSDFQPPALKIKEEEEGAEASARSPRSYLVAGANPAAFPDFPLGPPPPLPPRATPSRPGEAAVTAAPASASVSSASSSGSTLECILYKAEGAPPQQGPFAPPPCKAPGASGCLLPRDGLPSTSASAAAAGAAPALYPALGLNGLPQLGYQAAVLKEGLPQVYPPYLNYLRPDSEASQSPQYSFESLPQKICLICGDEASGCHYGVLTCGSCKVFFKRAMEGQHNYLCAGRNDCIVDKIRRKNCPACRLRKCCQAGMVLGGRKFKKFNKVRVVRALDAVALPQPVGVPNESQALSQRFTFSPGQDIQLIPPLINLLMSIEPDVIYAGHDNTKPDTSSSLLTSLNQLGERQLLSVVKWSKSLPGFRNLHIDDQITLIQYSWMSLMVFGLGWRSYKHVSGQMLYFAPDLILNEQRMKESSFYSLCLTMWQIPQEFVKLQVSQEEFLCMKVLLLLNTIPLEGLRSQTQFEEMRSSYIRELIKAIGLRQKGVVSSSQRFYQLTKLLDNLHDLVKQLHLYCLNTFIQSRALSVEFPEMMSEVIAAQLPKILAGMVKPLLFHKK
# [7] = molecular target: 5-hydroxytryptamine receptor 2A (Homo sapiens, UniProt P28223); type: functional, cell-based
# Sequence of 5-hydroxytryptamine receptor 2A (P28223 whole entry): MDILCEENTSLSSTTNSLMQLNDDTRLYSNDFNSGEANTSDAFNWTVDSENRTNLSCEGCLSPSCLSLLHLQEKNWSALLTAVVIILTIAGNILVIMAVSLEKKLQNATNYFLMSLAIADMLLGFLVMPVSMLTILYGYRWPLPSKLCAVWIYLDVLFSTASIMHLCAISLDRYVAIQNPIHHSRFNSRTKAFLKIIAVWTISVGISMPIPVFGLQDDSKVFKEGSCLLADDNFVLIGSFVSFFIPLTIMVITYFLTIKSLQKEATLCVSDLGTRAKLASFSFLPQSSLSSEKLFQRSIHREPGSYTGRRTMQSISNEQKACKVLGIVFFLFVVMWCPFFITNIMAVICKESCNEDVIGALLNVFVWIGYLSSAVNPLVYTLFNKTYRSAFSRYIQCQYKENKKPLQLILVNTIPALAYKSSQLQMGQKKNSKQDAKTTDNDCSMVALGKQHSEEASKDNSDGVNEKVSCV
# Note: assay procedure not described here.
# Sequence of Delta-type opioid receptor (P41143 whole entry): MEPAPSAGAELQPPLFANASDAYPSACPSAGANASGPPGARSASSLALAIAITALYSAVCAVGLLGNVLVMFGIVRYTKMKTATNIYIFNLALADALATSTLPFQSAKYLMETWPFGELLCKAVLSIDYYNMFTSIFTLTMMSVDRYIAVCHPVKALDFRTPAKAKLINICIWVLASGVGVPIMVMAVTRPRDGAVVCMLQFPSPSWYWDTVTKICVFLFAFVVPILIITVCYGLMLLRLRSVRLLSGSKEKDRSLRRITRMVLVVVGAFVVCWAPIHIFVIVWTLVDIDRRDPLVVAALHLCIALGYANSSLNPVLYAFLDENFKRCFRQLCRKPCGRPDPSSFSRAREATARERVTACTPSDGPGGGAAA
compound,measurement,setting,value
CC(=O)OCC(=O)[C@@]1(O)CC[C@H]2[C@@H]3CCC4=CC(=O)CC[C@]4(C)C3=CC[C@@]21C [ANECORTAVE ACETATE],AC50,[1],> 30 µM
same,AC50,[2],> 10 µM
same,AC50,[3],> 10 µM
same,AC50,[4],> 30 µM
same,AC50,[5],> 10 µM
same,AC50,[6],> 30 µM
same,AC50,[7],> 10 µM
CCN(CC)C(=O)C1CN2CCc3cc(OC)c(OC)cc3C2CC1OC(C)=O (configuration not stated) [BENZQUINAMIDE],AC50,[1],> 30 µM
same,AC50,[2],> 30 µM
same,AC50,[3],2.72 µM
same,AC50,[4],> 30 µM
same,AC50,[5],> 30 µM
same,AC50,[6],> 30 µM
same,AC50,[7],> 30 µM
CCCCC1(CC)C(=O)NC(=O)NC1=O [BUTETHAL],AC50,[1],> 30 µM
same,AC50,[2],> 30 µM
same,AC50,[3],> 30 µM
same,AC50,[4],> 30 µM
same,AC50,[5],> 30 µM
same,AC50,[6],> 30 µM
same,AC50,[7],> 30 µM
CCOC(=O)NNc1ccc(N(CC)CC(C)O)nn1 (configuration not stated) [CADRALAZINE],AC50,[1],> 30 µM
same,AC50,[2],> 30 µM
same,AC50,[3],0.5 µM
same,AC50,[4],> 30 µM
same,AC50,[5],> 30 µM
same,AC50,[6],> 30 µM
same,AC50,[7],> 30 µM
CO[C@@]1(NC(=O)Cc2cccs2)C(=O)N2C(C(=O)O)=C(COC(N)=O)CS[C@@H]21 [CEFOXITIN],AC50,[1],> 30 µM
same,AC50,[2],> 30 µM
same,AC50,[3],> 30 µM
same,AC50,[4],> 30 µM
same,AC50,[5],> 30 µM
same,AC50,[6],> 30 µM
same,AC50,[7],> 30 µM
CCN(CC)CCOC(=O)c1ccc(N)cc1Cl [CHLOROPROCAINE],AC50,[1],> 30 µM
same,AC50,[2],> 30 µM
same,AC50,[3],> 30 µM
same,AC50,[4],> 30 µM
same,AC50,[5],7.9 µM
same,AC50,[6],> 30 µM
same,AC50,[7],> 30 µM
COCCOC(=O)C1=C(C)NC(C)=C(C(=O)OC/C=C/c2ccccc2)C1c1cccc([N+](=O)[O-])c1 (configuration not stated) [CILNIDIPINE],AC50,[1],> 30 µM
same,AC50,[2],> 30 µM
same,AC50,[3],> 30 µM
same,AC50,[4],> 30 µM
same,AC50,[5],> 30 µM
same,AC50,[6],> 30 µM
same,AC50,[7],> 30 µM
CCC(C)(Oc1ccc(C2(c3ccc(OC(C)(CC)C(=O)O)cc3)CCCCC2)cc1)C(=O)O (configuration not stated) [CLINOFIBRATE],AC50,[1],> 30 µM
same,AC50,[2],> 30 µM
same,AC50,[3],> 30 µM
same,AC50,[4],> 30 µM
same,AC50,[5],> 30 µM
same,AC50,[6],> 30 µM
same,AC50,[7],> 30 µM
CCCCC[C@H](O)/C=C/[C@H]1[C@H](O)CC(=O)[C@@H]1C/C=C\CCCC(=O)O [DINOPROSTONE],AC50,[1],> 30 µM
same,AC50,[2],> 30 µM
same,AC50,[3],15 µM
same,AC50,[4],> 30 µM
same,AC50,[5],> 30 µM
same,AC50,[6],4.5 µM
same,AC50,[7],> 30 µM
CC(C)c1cc2c(cc1S(=O)(=O)O)[C@@]1(C)CCC[C@@](C)(C(=O)O)[C@@H]1CC2 [ECABET],AC50,[1],> 30 µM
same,AC50,[2],> 30 µM
same,AC50,[3],> 30 µM
same,AC50,[4],> 30 µM
same,AC50,[5],> 30 µM
same,AC50,[6],> 30 µM
same,AC50,[7],> 30 µM
CCCN(CC)C(CC)C(=O)Nc1c(C)cccc1C (configuration not stated) [ETIDOCAINE],AC50,[1],> 30 µM
same,AC50,[2],> 30 µM
same,AC50,[3],> 30 µM
same,AC50,[4],> 30 µM
same,AC50,[5],> 30 µM
same,AC50,[6],> 30 µM
same,AC50,[7],> 30 µM
